US20260240878A1, “PTP1B/TC-PTP DUAL INHIBITORS AND PROTEIN DEGRADERS” (Purdue Research Foundation, priority 2023, published 2026)
*1 amine or outer side, *2 acyl side, *3 side chain or, on linkers, in order; H or OH if unused. Where a SMILES comes first, the peptide text is derived from it. [ ]: non-standard residue; d: D form. The star is where a group is joined. NHBn(4-(4-Me-thiazol-5-yl)) = Cc1ncsc1-c1ccc(CN*)cc1; F2Pmp = N[C@@H](Cc1ccc(C(F)(F)P(=O)(O)O)cc1)C(=O)O; Phenylacetyl(4-OH,3-OMe) = COc1cc(CC(=O)*)ccc1O; Benzoyl(3-Br,4-Me) = Cc1ccc(C(=O)*)cc1Br; NH(CH2)9CO = O=C(CCCCCCCCCN[*:1])[*:2]; X1 = Cc1ncsc1-c1ccc([C@H](C)N*)cc1; Hyp = O=C(O)[C@@H]1C[C@@H](O)CN1; dHyp = O=C(O)[C@H]1C[C@H](O)CN1; dTle = CC(C)(C)[C@@H](N)C(=O)O; Tle = CC(C)(C)[C@H](N)C(=O)O; 12Ado = NCCCCCCCCCCCC(=O)O; Ahp = NCCCCCCC(=O)O; PEG1 = NCCOCCC(=O)O

Assays:
TC-PTP [1] = molecular target: T1, TC-PTP (Homo sapiens, UniProt P17706); assay: Degradation assay in HEK293 cells (immunoblotting); type: cell-based; parameters: Degradation assay was conducted in HEK293 cells with 1 μM degrader and 24 hours incubation; endogenous in cells; host or cells: HEK293; conditions: 1 μM degrader, 24 hours, read-out: % Protein Degradation TC-PTP
T1 sequence (P17706 1-415): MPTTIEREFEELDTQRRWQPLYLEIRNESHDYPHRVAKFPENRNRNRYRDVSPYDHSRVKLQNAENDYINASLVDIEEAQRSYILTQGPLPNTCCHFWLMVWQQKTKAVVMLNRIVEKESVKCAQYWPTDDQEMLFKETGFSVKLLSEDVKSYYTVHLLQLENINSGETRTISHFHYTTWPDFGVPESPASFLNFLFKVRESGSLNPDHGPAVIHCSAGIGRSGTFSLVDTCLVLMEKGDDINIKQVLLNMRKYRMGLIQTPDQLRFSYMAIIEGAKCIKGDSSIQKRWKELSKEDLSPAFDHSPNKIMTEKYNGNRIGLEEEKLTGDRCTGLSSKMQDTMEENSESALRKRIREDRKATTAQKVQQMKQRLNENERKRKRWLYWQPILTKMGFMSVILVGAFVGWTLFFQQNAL
Experimental: (§1) HEK293. MIAPaCa-2, HepG2, U2OS, H116, MEF, B16F10, and MC38 cells, were grown in DMEM, while Jurkat and H358 cells were grown in RPMI 1640 supplemented with 10% fetal bovine serum, penicillin (50 units/mL), and streptomycin (50 μg/mL) in a 37° C. incubator containing 5% CO2. 20 ng/ml human (Biolegend #713906) or mouse (Biolegend #714006) Interferon-γ were used for JAK/STAT pathway stimulation.
(§2) Tissues or cultured cells were lysed with ice-cold lysis buffer (50 mM Tris (pH 8.0, 150 mM NaCl, 10% Glycerol, 1% Triton-X-100) supplied with phosphatase inhibitor (Bimake) and protease inhibitor mixture (Roche Applied Science). Equal amounts of protein were resolved by SDS-PAGE, transferred to nitrocellulose membrane, and subjected to immunoblotting. Antibodies used in this study include anti-following proteins: pSTAT1^Tyr701 (Cell Signaling Technology #9167, 1:3000), GAPDH (Cell Signaling Technology #97166, 1:5000), pJAK1^Tyr1034/1035 (Cell Signaling Technology #74129, 1:1000), pJAK2^Tyr1007/1008 (Cell Signaling Technology #3776, 1:1000), TC-PTP (Abcam #ab180764, 1:3000). PTP1B (Abcam #ab244207, 1:1500).
(§3) Degradation assay was conducted in HEK293 cells with 1 μM degrader and 24 hours incubation.
(§4) The degradation assay was conducted in HEK293 cells with 0.2 μM degrader and 16 hours incubation.

PTP1B [2] = molecular target: T2, PTP1B (Homo sapiens, UniProt P18031); assay: Degradation assay in HEK293 cells (immunoblotting); type: cell-based; parameters: Degradation assay was conducted in HEK293 cells with 1 μM degrader and 24 hours incubation; endogenous in cells; host or cells: HEK293; conditions: 1 μM degrader, 24 hours
T2 sequence (P18031 1-435): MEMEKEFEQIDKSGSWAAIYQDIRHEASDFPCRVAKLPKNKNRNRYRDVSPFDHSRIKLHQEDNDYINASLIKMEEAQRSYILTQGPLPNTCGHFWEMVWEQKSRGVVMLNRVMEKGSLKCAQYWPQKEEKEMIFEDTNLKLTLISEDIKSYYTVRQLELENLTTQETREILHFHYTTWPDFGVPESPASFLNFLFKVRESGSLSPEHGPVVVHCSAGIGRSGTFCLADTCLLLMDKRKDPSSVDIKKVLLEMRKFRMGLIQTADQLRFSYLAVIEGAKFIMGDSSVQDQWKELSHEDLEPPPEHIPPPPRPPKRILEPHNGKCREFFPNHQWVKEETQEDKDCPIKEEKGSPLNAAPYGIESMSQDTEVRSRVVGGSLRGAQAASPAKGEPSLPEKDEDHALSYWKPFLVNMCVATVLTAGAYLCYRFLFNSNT
Experimental: as §1, §2, §3, §4

TC-PTP [3] = molecular target: T1, TC-PTP; assay: PTP activity assay with pNPP substrate (IC50, Ki, mode of inhibition); type: biochemical; conditions: for IC50: pNPP 2 mM, pH 7.0, 25° C., read-out: IC50, nM TC-PTP
Experimental: (§5) PTP activity was assayed using p-nitrophenyl phosphate (pNPP) as a substrate in DMG buffer (50 mM DMG. pH 7.0, 1 mM EDTA, 150 mM NaCl, 2 mM DTT, 0.1 mg/mL BSA) at 25° C. The assays were performed in 96-well plates. Normally, to determine the IC50 values, the reaction was initiated by the addition of enzyme (for PTP1B and TCPTP, the final concentration was 0.4 nM, for other PTPs, the final concentration was 10 nM) to a reaction mixture (0.2 mL) containing 2 mM (Km for the substrate) pNPP with various concentrations of inhibitors (see FIG. 1). The reaction rate was measured using a SpectraMax Plus 384 Microplate Spectrophotometer (Molecular Devices). Data were fitted using SigmaPlot Enzyme Kinetics Module (Systat Software, Inc.). To determine the mode of inhibition, the reactions were initiated by the addition of enzyme (final concentration for TC-PTP and PTP1B was 0.4 nM) to the reaction mixtures (0.2 mL) containing various concentrations of pNPP with different concentrations of the inhibitor. Data were fitted using SigmaPlot Enzyme Kinetics Module (Systat Software. Inc.).

PTP1B [4] = molecular target: T2, PTP1B; assay: as above; type: biochemical; conditions: for IC50: pNPP 2 mM, pH 7.0, 25° C., read-out: IC50, nM PTP1B
Experimental: as §5

TC-PTP [5] = molecular target: T1, TC-PTP; assay: Degradation assay in HEK293 cells (immunoblotting); type: cell-based; parameters: endogenous in cells; host or cells: HEK293; conditions: 0.2 μM degrader, 16 hours, read-out: % Protein Degradation TC-PTP
Experimental: as §1, §2, §3, §4

PTP1B [6] = molecular target: T2, PTP1B; assay: Degradation assay in HEK293 cells (immunoblotting); type: cell-based; parameters: endogenous in cells; host or cells: HEK293; conditions: 0.2 μM degrader, 16 hours
Experimental: as §1, §2, §3, §4

Row | Compound | percent TC-PTP degradation at 1 µM (TC-PTP [1]) [%] | % Protein Degradation PTP1B (PTP1B [2]) [%] | IC50 (TC-PTP [3]) [nM] | IC50 (PTP1B [4]) [nM] | percent TC-PTP degradation at 0.2 µM (TC-PTP [5]) [%] | Ki (TC-PTP [3]; TC-PTP catalyzed pNPP hydrolysis) [nM] | Ki (PTP1B [4]; PTP1B-catalyzed pNPP hydrolysis) [nM] | % Protein Degradation PTP1B (PTP1B [6]) [%]
1 | COc1cc(CC(=O)N[C@@H](Cc2ccccc2)C(=O)N[C@@H](Cc2ccc(C(F)(F)P(=O)(O)O)cc2)C(=O)N[C@@H](CCCCNC(=O)c2ccc(C)c(Br)c2)C(=O)NCCCCCCCCCC(=O)N[C@H](C(=O)N2C[C@H](O)C[C@H]2C(=O)NCc2ccc(-c3scnc3C)cc2)C(C)(C)C)ccc1O [Compound 14, ((4-((S)-3-(((S)-6-(3-bromo-4-methylbenzamido)-1-((10-(((S)-1-((2S,4R)-4-hydroxy-2-((4-(4-methylthiazol-5-yl)benzyl)carbamoyl)pyrrolidin-1-yl)-3,3-dimethyl-1-oxobutan-2-yl)amino)-10-oxodecyl)amino)-1-oxohexan-2-yl)amino)-2-((S)-2-(2-(4-hydroxy-3-methoxyphenyl)acetamido)-3-phenylpropanamido)-3-oxopropyl)phenyl)difluoromethyl)phosphonic Acid] ({Phenylacetyl(4-OH,3-OMe)}-F[F2Pmp]K(Benzoyl(3-Br,4-Me))[NH(CH2)9CO][Tle][Hyp]-{NHBn(4-(4-Me-thiazol-5-yl))}) | 62 | 38 | 6.8 ± 0.3 | 10.3 ± 0.6 |  |  |  | 
2 | COc1cc(CC(=O)N[C@@H](Cc2ccccc2)C(=O)N[C@@H](Cc2ccc(C(F)(F)P(=O)(O)O)cc2)C(=O)N[C@@H](CCCCNC(=O)c2ccc(C)c(Br)c2)C(=O)NCCCCCCCCCCCC(=O)N[C@H](C(=O)N2C[C@H](O)C[C@H]2C(=O)NCc2ccc(-c3scnc3C)cc2)C(C)(C)C)ccc1O [Compound 18, ((4-((S)-3-(((S)-6-(3-bromo-4-methylbenzamido)-1-((12-(((S)-1-((2S,4R)-4-hydroxy-2-((4-(4-methylthiazol-5-yl)benzyl)carbamoyl)pyrrolidin-1-yl)-3,3-dimethyl-1-oxobutan-2-yl)amino)-12-oxododecyl)amino)-1-oxohexan-2-yl)amino)-2-((S)-2-(2-(4-hydroxy-3-methoxyphenyl)acetamido)-3-phenylpropanamido)-3-oxopropyl)phenyl)difluoromethyl)phosphonic Acid] ({Phenylacetyl(4-OH,3-OMe)}-F[F2Pmp]K(Benzoyl(3-Br,4-Me))[12Ado][Tle][Hyp]-{NHBn(4-(4-Me-thiazol-5-yl))}) | 30 | 29 | 8.9 ± 0.6 | 22.3 ± 1.1 |  |  |  | 
3 | COc1cc(CC(=O)N[C@@H](Cc2ccccc2)C(=O)N[C@@H](Cc2ccc(C(F)(F)P(=O)(O)O)cc2)C(=O)N[C@@H](CCCCNC(=O)c2ccc(C)c(Br)c2)C(N)=O)ccc1O [Example 7, ((4-((S)-3-(((S)-1-amino-6-(3-bromo-4-methylbenzamido)-1-oxohexan-2-yl)amino)-2-((S)-2-(2-(4-hydroxy-3-methoxyphenyl)acetamido)-3-phenylpropanamido)-3-oxopropyl)phenyl)difluoromethyl)phosphonic Acid] | 0 |  | 7.1 ± 0.4 | 4.7 ± 0.3 | 0 | 3.6 | 2.4 | 
4 | COc1cc(CC(=O)N[C@@H](Cc2ccccc2)C(=O)N[C@@H](Cc2ccc(C(F)(F)P(=O)(O)O)cc2)C(=O)N[C@@H](CCCCNC(=O)c2ccc(C)c(Br)c2)C(=O)NCCCCCCC(=O)N[C@@H](C(=O)N2C[C@@H](O)C[C@@H]2C(=O)NCc2ccc(-c3scnc3C)cc2)C(C)(C)C)ccc1O [Compound 10, ((4-((S)-3-(((S)-6-(3-bromo-4-methylbenzamido)-1-((7-(((R)-1-((2R,4S)-4-hydroxy-2-((4-(4-methylthiazol-5-yl)benzyl)carbamoyl)pyrrolidin-1-yl)-3,3-dimethyl-1-oxobutan-2-yl)amino)-7-oxoheptyl)amino)-1-oxohexan-2-yl)amino)-2-((S)-2-(2-(4-hydroxy-3-methoxyphenyl)acetamido)-3-phenylpropanamido)-3-oxopropyl)phenyl)difluoromethyl)phosphonic Acid] ({Phenylacetyl(4-OH,3-OMe)}-F[F2Pmp]K(Benzoyl(3-Br,4-Me))[Ahp][dTle][dHyp]-{NHBn(4-(4-Me-thiazol-5-yl))}) | 69 | 61 | 6.8 ± 0.6 | 7.4 ± 0.6 |  |  |  | 
5 | COc1cc(CC(=O)N[C@@H](Cc2ccccc2)C(=O)N[C@@H](Cc2ccc(C(F)(F)P(=O)(O)O)cc2)C(=O)N[C@@H](CCCCNC(=O)c2ccc(C)c(Br)c2)C(=O)NCCOCCC(=O)N[C@H](C(=O)N2C[C@H](O)C[C@H]2C(=O)N[C@@H](C)c2ccc(-c3scnc3C)cc2)C(C)(C)C)ccc1O [Compound 27, ((4-((2S,5S,15S)-5-(4-(3-bromo-4-methylbenzamido)butyl)-15-((2S,4R)-4-hydroxy-2-(((S)-1-(4-(4-methylthiazol-5-yl)phenyl)ethyl)carbamoyl)pyrrolidine-1-carbonyl)-2-((S)-2-(2-(4-hydroxy-3-methoxyphenyl)acetamido)-3-phenylpropanamido)-16,16-dimethyl-3,6,13-trioxo-10-oxa-4,7,14-triazaheptadecyl)phenyl)difluoromethyl)phosphonic Acid] ({Phenylacetyl(4-OH,3-OMe)}-F[F2Pmp]K(Benzoyl(3-Br,4-Me))[PEG1][Tle][Hyp]-X1) |  |  | 6.7 ± 2 | 15.5 ± 2.1 | 63 |  |  | 75
